Reference: patent US20140249024A1, “Pesticidal Methods Using Substituted 3-pyridyl Thiazole Compounds and Derivatives for Combating Animal Pests II” (BASF SE, priority 2011, published 2014)

Tests used:
Format in all cases: in vivo
[1] = tested on: Cowpea Aphid (Aphis craccivora); test: Cowpea aphid test on sprayed potted cowpea plants; details: spray on cowpea plants, population reduction assessed after 24, 72 and 120 hours, read-out: mortality in comparison with untreated controls
Protocol: The active compound was dissolved at the desired concentration in a mixture of 1:1 (vol:vol) distilled water:acetone. The test solution was prepared at the day of use.
Potted cowpea plants colonized with approximately 100-150 aphids of various stages were sprayed after the pest population had been recorded. Population reduction was assessed after 24, 72, and 120 hours.

[2] = tested on: Silverleaf Whitefly (bemisia argentifolii); test: Silverleaf whitefly adult mortality on sprayed cotton plants; details: 72 h, spray on cotton plants, whitefly adults, assessed 3 days after treatment, read-out: mortality in comparison with untreated controls
Source text: (§1) The active compounds were formulated in cyclohexanone as a 10,000 ppm solution supplied in tubes. The tubes were inserted into an automated electrostatic sprayer equipped with an atomizing nozzle and they serve as stock solutions for which lower dilutions are made in 50% acetone:50% water (v/v). A nonionic surfactant (Kinetic®) was included in the solution at a volume of 0.01% (v/v).
Cotton plants at the cotyledon stage (one plant per pot) were sprayed by an automated electrostatic plant sprayer equipped with an atomizing spray nozzle. The plants were dried in the sprayer fume hood and then removed from the sprayer. Each pot was placed into a plastic cup and about 10 to 12 whitefly adults (approximately 3-5 days old) were introduced. The insects were collected using an aspirator and a nontoxic Tygon® tubing connected to a barrier pipette tip. The tip, containing the collected insects, were then gently inserted into the soil containing the treated plant, allowing insects to crawl out of the tip to reach the foliage for feeding. Cups were covered with a reusable screened lid. Test plants were maintained in a growth room at about 25° C. and about 20-40% relative humidity for 3 days, avoiding direct exposure to fluorescent light (24 hour photoperiod) to prevent trapping of heat inside the cup. Mortality was assessed 3 days after treatment, compared to untreated control plants.

[3] = tested on: Green Peach Aphid (Myzus persicae); test: Green peach aphid mortality on sprayed bell pepper plants; details: 120 h, spray on infested bell pepper plants, determined after 5 days, read-out: mortality in comparison with untreated controls
Source text: as §1, with “served” for “serve”, “were” for “are”
Bell pepper plants at the first true-leaf stage were infested prior to treatment by placing heavily infested leaves from the main colony on top of the treatment plants. Aphids were allowed to transfer overnight to accomplish an infestation of 30-50 aphids per plant and the host leaves were removed. The infested plants were then sprayed by an automated electrostatic plant sprayer equipped with an atomizing spray nozzle. The plants were dried in the sprayer fume hood, removed, and then maintained in a growth room under fluorescent lighting in a 24-hr photoperiod at about 25° C. and about 20-40% relative humidity. Aphid mortality on the treated plants, relative to mortality on untreated control plants, was determined after 5 days.

[4] = tested on: Cotton Aphid (Aphis gossypii); test: Cotton aphid mortality on dipped cotton cotyledons; details: 120 h, mortality counts after 5 days, read-out: mortality in comparison with untreated controls
Source text: The active compounds were formulated in 50:50 (vol:vol) acetone: water and 100 ppm Kinetica™ surfactant.
Cotton plants at the cotyledon stage (one plant per pot) weare infested by placing a heavily infested leaf from the main colony on top of each cotyledon. The aphids were allowed to transfer to the host plant overnight, and the leaf used to transfer the aphids was removed. The cotyledons were dipped in the test solution and allowed to dry. After 5 days, mortality counts were made.

Measured: mortality at 500 ppm

Clc1nc(-c2cccnc2)sc1-c1ccccn1 [C.4, 4-chloro-5-(2-pyridyl)-2-(3-pyridyl)thiazole]
≥ 75%: [1] | [2] | [3]

FC(F)(F)c1nc(-c2cccnc2)sc1-c1ccn(-c2ncccn2)n1 [C.2, 2-[3-(2-Pyridin-3-yl-4-trifluoromethyl-thiazol-5-yl)-pyrazol-1-yl]-pyrimidine]
≥ 75%: [4] | [1] | [3]
